Our source for the MIC values is DBAASP.

What all share (assay): ≥ marks a high value that may be exact or a test limit, other limits are often not marked, values filed in µg/mL are converted to µM
The subject of test [1] is Candida albicans ATCC 10231.
The subject of test [2] is Bacillus subtilis ATCC 23857.
In test [3] the test system is Staphylococcus aureus NCTC 10788.
Test [4] relates to Escherichia coli NCTC 10418.
For test [5], the system named is Escherichia coli ATCC 25922.
The subject of test [6] is Staphylococcus aureus NCTC 8325.
In test [7] the test system is Candida albicans ATCC 90028.
Test [8] has as its system Pseudomonas aeruginosa ATCC 9027.
Test [9] concerns Staphylococcus aureus ATCC 25923.
Test [10] concerns Klebsiella pneumoniae ATCC 700603.

In brackets after ≈: the same amount, converted by molar mass.

Regarding `C[C@H](N)C(=O)N[C@@H](C)C(=O)N[C@@H](CCCN=C(N)N)C(=O)N[C@@H](CCCN=C(N)N)C(=O)N[C@@H](C)C(=O)N[C@@H](C)C(=O)N[C@@H](CCCN=C(N)N)C(=O)N[C@@H](CCCN=C(N)N)C(=O)N[C@@H](C)C(=O)N[C@@H](C)C(=O)N[C@@H](CCCN=C(N)N)C(=O)N[C@@H](CCCN=C(N)N)C(N)=O` [AARRAARRAARR], the MIC (commonly the lowest concentration that inhibits growth of the organism) in [1] was over 362 µM; in [2], at least 362 µM.

`CC(C)C[C@H](NC(=O)[C@H](CC(C)C)NC(=O)CNC(=O)CNC(=O)[C@H](CC(C)C)NC(=O)[C@H](CC(C)C)NC(=O)CNC(=O)[C@H](CC(C)C)NC(=O)[C@@H](N)Cc1ccccc1)C(N)=O` [FLGLLGGLL] yielded an MIC in test [3] of at least 284 µM.

Take `CC[C@H](C)[C@H](NC(=O)[C@@H](NC(=O)[C@@H]1CCCN1C(=O)[C@H](CC(C)C)NC(=O)[C@@H](N)Cc1ccccc1)C(C)C)C(=O)N[C@@H](C)C(=O)NCC(=O)N[C@H](C(=O)N[C@@H](CC(C)C)C(=O)N[C@@H](CO)C(=O)N[C@@H](CCCCN)C(=O)N[C@@H](CC(C)C)C(=O)N[C@@H](Cc1ccccc1)C(N)=O)C(C)C` [FLPVIAGVLSKLF]: the MIC in test [4] is at least 40 µM; in test [3] it was 10 µM (≈ 14 µg/mL).

Consider `CC[C@H](C)[C@H](NC(=O)CN)C(=O)N[C@H](C(=O)N[C@@H](CCCN=C(N)N)C(=O)NCC(=O)N[C@H](C(=O)N[C@H](C(=O)N[C@@H](CCCN=C(N)N)C(=O)N[C@@H](CCCN=C(N)N)C(=O)N[C@H](C(=O)N[C@@H](CCCCN)C(=O)NCC(N)=O)[C@@H](C)CC)[C@@H](C)CC)[C@@H](C)CC)[C@@H](C)CC` [GIIRGIIRRIKG], for which the figures for the MIC in test [5] and in [2] were over 128 µM and 8 µM (≈ 10.8 µg/mL), respectively.

Turning to `CC[C@H](C)[C@H](NC(=O)CN)C(=O)N[C@@H](CCCN=C(N)N)C(=O)N[C@@H](CCCN=C(N)N)C(=O)NCC(=O)N[C@H](C(=O)N[C@H](C(=O)N[C@@H](CCCN=C(N)N)C(=O)N[C@H](C(=O)N[C@H](C(=O)N[C@@H](CCCCN)C(=O)N[C@@H](CCCN=C(N)N)C(N)=O)[C@@H](C)CC)[C@@H](C)CC)[C@@H](C)CC)[C@@H](C)CC` [GIRRGIIRIIKR], the figures for the minimum inhibitory concentration (MIC) in test [5] and in test [2] were 64 µM (≈ 92.8 µg/mL) and 16 µM (≈ 23.2 µg/mL), respectively.

`CC[C@H](C)[C@H](NC(=O)CN)C(=O)N[C@@H](CCCN=C(N)N)C(=O)N[C@@H](CCCN=C(N)N)C(=O)NCC(=O)N[C@H](C(=O)N[C@@H](CCCN=C(N)N)C(=O)N[C@@H](CCCN=C(N)N)C(=O)N[C@H](C(=O)N[C@@H](CCCCN)C(=O)N[C@@H](CCCCN)C(=O)N[C@@H](CCCN=C(N)N)C(N)=O)[C@@H](C)CC)[C@@H](C)CC` [GIRRGIRRIKKR]: the MIC is over 128 µM in test [5] and at least 128 µM in test [2].

In the case of `CC[C@H](C)[C@H](NC(=O)[C@H](CC(C)C)NC(=O)[C@H](CC(C)C)NC(=O)[C@H](CC(N)=O)NC(=O)[C@H](CCCCN)NC(=O)[C@@H](NC(=O)[C@@H](NC(=O)CNC(=O)[C@H](CC(C)C)NC(=O)[C@@H](NC(=O)CN)C(C)C)[C@@H](C)O)C(C)C)C(=O)NCC(=O)N[C@@H](C)C(=O)NCC(=O)N[C@@H](CCCCN)C(=O)N[C@@H](CO)C(=O)N[C@@H](C)C(=O)N[C@@H](C)C(=O)N[C@@H](CCC(N)=O)C(=O)N[C@@H](CO)C(=O)N[C@H](C(=O)N[C@@H](CC(C)C)C(=O)N[C@@H](CCCCN)C(=O)N[C@H](C(=O)N[C@@H](CC(C)C)C(=O)N[C@@H](CO)C(=O)N[C@H]1CSSC[C@@H](C(=O)O)NC(=O)[C@H](CC(=O)O)NC(=O)[C@H](CC(N)=O)NC(=O)[C@H](CO)NC(=O)[C@H](CC(C)C)NC(=O)[C@H](CCCCN)NC1=O)[C@@H](C)O)C(C)C` [GVLGTVKNLLIGAGKSAAQSVLKTLSCKLSNDC], the MIC in [5] was 6 µM (≈ 19.7 µg/mL); in test [6], 25 µM (≈ 82.2 µg/mL); in test [7] it was at least 100 µM.

As for `CC[C@H](C)[C@H](N)C(=O)N[C@@H](CC(C)C)C(=O)N1CCC[C@H]1C(=O)N[C@H](C(=O)N[C@@H](CC(C)C)C(=O)NCC(=O)N[C@@H](CC(N)=O)C(=O)N[C@@H](CC(C)C)C(=O)N[C@@H](CC(C)C)C(=O)N[C@@H](CC(N)=O)C(=O)NCC(=O)N[C@@H](CC(C)C)C(=O)N[C@@H](CC(C)C)C(N)=O)[C@@H](C)CC` [ILPILGNLLNGLL], the minimum inhibitory concentration (MIC) is over 100 µM in test [5], at least 100 µM in test [6] and at least 100 µM in test [7].

On to `CC[C@H](C)[C@H](NC(=O)[C@H](CCCCN)NC(=O)[C@H](CCCCN)NC(=O)[C@H](C)NC(=O)[C@@H](NC(=O)[C@H](C)NC(=O)[C@H](CC(C)C)NC(=O)[C@H](CC(C)C)NC(=O)[C@H](C)NC(=O)[C@H](CCCCN)NC(=O)[C@H](CC(C)C)NC(=O)[C@H](C)NC(=O)[C@@H](N)CC(C)C)C(C)C)C(=O)N[C@@H](CC(C)C)C(N)=O` [LALKALLAVAKKIL], for which the MIC was 4 µM (≈ 5.86 µg/mL) in [5]; 8 µM (≈ 11.7 µg/mL) in test [8]; 4 µM (≈ 5.86 µg/mL) in test [9]; 8 µM (≈ 11.7 µg/mL) in [10]; 4 µM (≈ 5.86 µg/mL) in test [2].

On to `CC[C@H](C)[C@H](NC(=O)[C@H](CCCCN)NC(=O)[C@H](CCCCN)NC(=O)[C@H](C)NC(=O)[C@@H](NC(=O)[C@H](C)NC(=O)[C@H](CC(C)C)NC(=O)[C@H](CC(C)C)NC(=O)[C@H](C)NC(=O)[C@H](C)NC(=O)[C@H](CC(C)C)NC(=O)[C@H](CC(N)=O)NC(=O)[C@@H](N)CC(C)C)C(C)C)C(=O)N[C@@H](CC(C)C)C(N)=O` [LNLAALLAVAKKIL], for which the MIC was 8 µM (≈ 11.6 µg/mL) in [5]; 32 µM (≈ 46.4 µg/mL) in test [8]; 4 µM (≈ 5.8 µg/mL) in test [9]; 32 µM (≈ 46.4 µg/mL) in [10]; 16 µM (≈ 23.2 µg/mL) in test [2].

On to `CC(C)C[C@H](NC(=O)[C@H](C)NC(=O)[C@H](CCCCN)NC(=O)[C@H](CCCCN)NC(=O)[C@H](C)NC(=O)[C@@H](NC(=O)[C@H](C)NC(=O)[C@H](CC(C)C)NC(=O)[C@H](CC(C)C)NC(=O)[C@H](C)NC(=O)[C@H](CCCCN)NC(=O)[C@H](CC(C)C)NC(=O)[C@H](CC(N)=O)NC(=O)[C@@H](N)CC(C)C)C(C)C)C(N)=O` [LNLKALLAVAKKAL], for which the MIC was 8 µM (≈ 11.7 µg/mL) in test [5]; 32 µM (≈ 46.9 µg/mL) in [8]; 32 µM (≈ 46.9 µg/mL) in test [9]; 32 µM (≈ 46.9 µg/mL) in test [10]; 8 µM (≈ 11.7 µg/mL) in [2].

Consider `CC[C@H](C)[C@H](NC(=O)[C@H](CCCCN)NC(=O)[C@H](CCCCN)NC(=O)[C@H](C)NC(=O)[C@@H](NC(=O)[C@H](C)NC(=O)[C@H](CC(C)C)NC(=O)[C@H](CC(C)C)NC(=O)[C@H](C)NC(=O)[C@H](CCCCN)NC(=O)[C@H](CC(C)C)NC(=O)[C@H](CC(N)=O)NC(=O)[C@@H](N)CC(C)C)C(C)C)C(=O)N[C@@H](C)C(N)=O` [LNLKALLAVAKKIA], for which the MIC stood at 8 µM (≈ 11.7 µg/mL) in test [5]; 32 µM (≈ 46.9 µg/mL) in test [8]; 32 µM (≈ 46.9 µg/mL) in [9]; 16 µM (≈ 23.4 µg/mL) in test [10]; 8 µM (≈ 11.7 µg/mL) in test [2].

`CC[C@H](C)[C@@H]1NC(=O)[C@H](CCCCN)NC(=O)[C@@H](NC(=O)[C@H](C)NC(=O)[C@@H](NC(=O)[C@H](CC(C)C)NC(=O)CNC(=O)[C@H](CC(C)C)NC(=O)CNC(=O)[C@@H](NC(=O)[C@H](CCCCN)NC(=O)CNC(=O)[C@H](CC(C)C)NC(=O)[C@H](CC(N)=O)NC(=O)[C@H](CCCCN)NC(=O)[C@H](CC(C)C)NC(=O)[C@@H](NC(=O)[C@H](CO)NC(=O)[C@H](CC(C)C)NC(=O)[C@H](CCSC)NC(=O)[C@@H](N)CO)C(C)C)C(C)C)C(C)C)CSSC[C@@H](C(=O)O)NC(=O)[C@H](CCC(N)=O)NC(=O)[C@H](CCCCN)NC(=O)[C@H](CC(N)=O)NC1=O` [SMLSVLKNLGKVGLGLVACKINKQC]: the minimum inhibitory concentration (MIC) in test [5] was 1.5 µM (≈ 3.92 µg/mL); in test [6], at least 55 µM; in test [7], at least 58 µM.
